Measured values: patent US11440932B2, “Surfactant compounds-clips for extraction and stabilization in solution of membrane proteins” (CENTRE NATIONAL DE LA RECHERCHE SCIENTIFIQUE, priority 2017, dated 2022)
Entries after “also recorded” stand apart in the source; their conditions may differ. Residues, ends and D or L forms follow the SMILES beside them. *: point of attachment. Palmitoyl = CCCCCCCCCCCCCCCC(=O)*; Myristoyl = CCCCCCCCCCCCCC(=O)*; Decanoyl = CCCCCCCCCC(=O)*

What was measured:
[1] = Critical micelle concentration (CMC) by DPH fluorescence; assay type: physicochemical; settings: 50 mM tris-HCl, pH 8.0
Procedure: FIG. 4 represents the fluorescence (%) of DPH (1,6-diphenyl-1,3,5-hexatriene) in the presence of increasing concentrations (0.0001 mM, 0.001 mM, 0.01 mM, 0.1 mM, 1 mM and 10 mM) of clips (compounds of the invention), exemplified with the compounds #3.7e (C13, points represented by squares) and 3.7f (C18, points represented by circles). The experiment is carried out in triplicates. In accordance with Chattopadhyay, A. & London, E ([22]), the CMC corresponds to the concentration at which the breakage in the slope is observed, here at 20 μM for 3.7f and 2 mM for 3.7e (black symbols).
Procedure. The molecules of the invention were prepared in a range of concentrations extending from 0.1 μM to 10 mM in 50 mM tris-HCl, pH 8.0 and neutralized at this pH. To 80 μl of each solution (triplicate), the same volume of 10 μM of 1,6-diphenyl-1,3,5-hexatriene (DPH, Sigma, D208000) is added, prepared at 100 μM in tetrahydrofuran then diluted 10-fold in H2O. The increase in the fluorescence of the DPH occurs when the latter find micelles of clips into which it can insert itself (Chattopadhyay, A. & London, E. Fluorimetric determination of critical micelle concentration avoiding interference from detergent charge. Anal Biochem 139, 408-412 (1984) ([22])). The fluorescence is read with a Xenius SAFAS fluorimeter by exciting at 358 nm and recording the fluorescence emission at 430 nm, with slits of 9 to 10 nm for the excitation and the emission and a gain of 100 to 150, depending on the cases.
Results. The CMC of the detergents is the concentration starting from which they associate with one another to form micelles, in which, in aqueous solution, the hydrophobic portions are grouped together at the center and the hydrophilic regions are exposed to the solvent. […] A typical result obtained with a compound 3.7 provided with a C13 (3.7e) or C18 ([…]) aliphatic chain is illustrated in FIG. 4.

AcrB = target: T1, AcrB (Escherichia coli, UniProt P31224); experiment: Extraction of AcrB from membranes (SDS-PAGE of supernatant); parameters: species or system bacterial; same expression system (E. coli C41DE3); settings: for extraction of AcrB: detergent 10 g/l unless indicated otherwise, 2 h at 4° C.
T1 construct: made in house; host or cells: E. coli C41(DE3)
Procedure: (§1) FIG. 6 depicts the extraction of the membrane proteins BmrA (panels A and C) and AcrB (panels B and D) using commercial detergents and the molecules of the invention (panels A and B, from left to right): SDS, DDM, FC12, TX100, compounds of the invention 1.4, 1.5, 2.3a, 2.3b, 2.3c, 2.3d, 2.3e, 2.3f, 2.3g, 2.3h, 2.3i, 3.7a, 3.7b; panel C: compounds of the invention 3.7c 0.8%, 3.7d 0.16%, 3.7e 0.8%, 3.7f 0.3%, 3.7g 0.4%, 3.7h 0.2%, 3.7i 0.07%, 3.7j 0.09%, 3.7k, 3.7l, 0.25%, 3.9a, 4.5a, 4.5b, 4.5c, 4.5d 0.34%, 4.6a, 4.6b, 4.6c, 4.6d, 5.3a, 5.3b, 5.3c 0.3%, 5.3d 0.3%; panel D: 3.7c, 3.7d, 3.7e, 3.7f, 3.7h, 3.7i 0.1%, 3.7j, 3.7k, 3.7l, 3.9a, 4.5a, 4.5b, 4.5c, 4.5d, 4.6a, 4.6b, 4.6c, 4.6d. The detergents are added at 10 g/l (1%), unless indicated otherwise. The equivalent of 20 μg of proteins of the extracted fraction after centrifugation at 100 000×g for 30 min is deposited on 10% SDS-PAGE, stained with Coomassie blue after migration. BmrA migrates in its monomeric form to the level of the 55 kDa band; AcrB migrates in its monomeric form to the level of the 100 kDa band. SDS=sodium dodecyl sulfate; DDM=β-D-dodecyl maltoside; FC12=foscholine-12; TX100=triton X-100.
(§2) The extraction capacity of the detergents of the series is tested on membranes in which BmrA or AcrB are strongly expressed. The extraction with the clips (molecules of the invention) is compared to that obtained with commercial detergents, used as reference.
(§3) Procedure. BmrA represents 25% of the proteins present in the overexpression system used (E. coli, C41DE3). These membranes are prepared as described previously (Matar-Merheb, R. et al. ([11])). The membranes containing AcrB (approximately 20% of the membrane proteins, same expression system as BmrA) were prepared as described previously (Seeger, M. A. et al. ([21])). The detergents are used at 10 g/l unless indicated otherwise, and the proteins diluted at 2 g/l in a 20 mM Tris-HCl buffer, pH 8.0, 100 mM NaCl, 15% glycerol, with protease inhibitors (Roche) added thereto at an amount of one tablet/100 ml. The mixture (T) is incubated for 2 h at 4° C. then centrifuged for 1 h at 4° C. at 100 000×g in order to separate the extracted fraction (supernatant, S) from that which is not extracted (pellet). The supernatants are deposited on 10% SDS-PAGE and stained with Coomassie blue after migration. The foscholine 12, DDM and LMNG originate from Anatrace, the SDS and Triton X100 originate from Sigma-Aldrich.

BmrA [2] = target: T2, BmrA (Bacillus subtilis, UniProt O06967); experiment: Extraction of BmrA from membranes (SDS-PAGE of supernatant); parameters: species or system bacterial; overexpressed in E. coli C41DE3; settings: detergent 10 g/l unless indicated otherwise; 2 h at 4° C.
T2 construct: His tag; made in house; host or cells: E. coli C41(DE3)
Procedure: as §1, §2, §3

BmrA [3] = target: T2, BmrA; experiment: ATPase activity of BmrA after addition of detergents; assay type: biochemical, bacterial; produced in E. coli C41 DE3
Procedure: FIG. 7 depicts the effect of the detergents of the invention on the functionality of BmrA (ATPase activity, %). The membrane fraction enriched in BmrA (˜25%) diluted to 2 g/l has the compounds added to it at the concentrations (mM) indicated (panel A, from top to bottom: 3.7e 10.7 mM, 3.7e 8.6 mM, 3.7e 6.4 mM, 3.7e 4.3 mM, 3.7e 2.2 mM, 3.7e 1.1 mM, 3.7d 4 mM, 3.7d 3 mM, 3.7d 2 mM, 3.7d 1 mM, 3.7d 0.8 mM, 3.7d 0.6 mM, 3.7d 0.05 mM, 3.7d 0.03 mM, 3.7d 0.02 mM, 3.7c 13 mM, 3.7c 10.4 mM, 3.7c 10 mM, 3.7b 1.5 mM, 3.7b 0.7 mM, 3.7b 0.5 mM, 2.3gNa2 20.5 mM, 2.3gK2 19.3 mM, 2.3f 21.1 mM, 2.3e 22 mM, 2.3d 23.2 mM, 2.3a 3.2 mM, 1.5a 22 mM, DDM 20 mM, DDM 2 mM, DDM 10 mM, DOM 2 mM, DDM 1 mM, LMNG 10 mM, LMNG 1 mM, LMNG 0.1 mM, LMNG 0.01 mM, FA3 27 mM, FA3 9 mM, FA3 2 mM, FA3 1 mM, TX100 16 mM; panel B from top to bottom: compounds of the invention 5.3d 3.2 mM, 5.3c 3.3 mM, 5.3b 11.7 mM, 5.3b 2.9 mM, 5.3a 3 mM, 4.6c 14.6 mM, 4.6b 15.2 mM, 4.5c 18.6 mM, 4.5b 19.6 mM, 3.9a 8 mM, 3.9a 0.51 mM, 3.9a 0.31 mM, 3.9a 0.11 mM, 3.7l 12.01 mM, 3.7l 6.01 mM, 3.7l 3 mM, 3.7l 1 mM, 3.7k 10 mM, 3.7k 3 mM, 3.7j 3 mM, 3.7j 2 mM, 3.7j 1 mM, 3.7j 0.6 mM, 3.7j 0.03 mM, 3.7j 0.02 mM, 3.7j 1 mM, 3.7i 0.3 mM, 3.7h 3 mM, 3.7h 2 mM, 3.7h 1 mM, 3.7h 0.6 mM, 3.7h 0.58 mM, 3.7h 0.5 mM, 3.7h 0.35 mM, 3.7h 0.1 mM, 3.7h 0.5 mM, 3.7h 0.35 mM, 3.7h 0.1 mM, 3.7h 0.05 mM, 3.7h 0.03 mM, 3.7h 0.02 mM, 3.7g 12.5 mM, 3.7g 9 mM, 3.7g 7.5 mM, 3.7g 5 mM, 3.7g 3 mM, 3.7g 1 mM, 3.7f 3.2 mM, 3.7f 2 mM, 3.7f 1 mM, 3.7f 0.061 mM, 3.7f 0.031 mM, 3.7f 0.015 mM). After incubation for 2 h at 4° C., the ATPase activity is measured. The solutions are subsequently centrifuged for 1 h at 4° C., 100 000×g, and the supernatants deposited on 10% SDS-PAGE (cf. FIG. 8). The gray and black histograms correspond to the concentrations at which BmrA is partially (gray) or entirely (black) extracted, according to these SDS-PAGE. The ATPase activity is in % relative to that of the protein without compound, 0.7 μmol ATP hydrolyzed/min/mg of proteins.
The molecules of the invention which extract BmrA in the previous example were tested at different sub-solubilizing and solubilizing concentrations, to evaluate their impact on the native and functional state of the protein. The latter is monitored by the hydrolysis of ATP which is carried out by the protein during the transport cycle, coupled with translocation of the solute. As reported previously (Matar-Merheb, R. et al. ([11])), the ATPase activity of BmrA is a highly sensitive marker of the state of the protein, the latter being particularly sensitive to the detergents used during the extraction step, where said detergents replace the lipids on contact with the membrane protein.
Procedure. BmrA produced and enriched in the plasma membrane of E. coli C41 DE3 is prepared as described previously (Matar-Merheb, R. et al. ([11])). The membranes are diluted at 2 g/l in a 20 mM Tris-HCl buffer, pH 8.0, 100 mM NaCl, 15% glycerol, with protease inhibitors (Roche) added thereto at an amount of one tablet/100 ml. The mixture (T) is incubated for 2 h at 4° C. and the ATPase activity is measured using the coupled-enzyme system, separating off the vanadate-insensitive activity from the total activity, Centeno, F. et al. Expression of the sarcoplasmic reticulum Ca^2+-ATPase in yeast. FEBS Lett 354, 117-122 (1994) ([25])). The solutions are subsequently centrifuged for 1 h at 4° C. at 100 000×g in order to separate the extracted fraction (supernatant, S) from that which is not extracted (pellet). The supernatants are deposited on 10% SDS-PAGE and stained with Coomassie blue after migration (FIG. 8). DDM, LMNG (Chae, P. S. et al. ([6])), TritonX100 and FA3 (Lee, S. C. et al. (2013) ([9])) are tested as reference detergents. The DDM and LMNG originate from Anatrace, the Triton X100 originates from Sigma-Aldrich and the FA3 from Avanti-Polars.

T1 sequence (P31224 whole entry): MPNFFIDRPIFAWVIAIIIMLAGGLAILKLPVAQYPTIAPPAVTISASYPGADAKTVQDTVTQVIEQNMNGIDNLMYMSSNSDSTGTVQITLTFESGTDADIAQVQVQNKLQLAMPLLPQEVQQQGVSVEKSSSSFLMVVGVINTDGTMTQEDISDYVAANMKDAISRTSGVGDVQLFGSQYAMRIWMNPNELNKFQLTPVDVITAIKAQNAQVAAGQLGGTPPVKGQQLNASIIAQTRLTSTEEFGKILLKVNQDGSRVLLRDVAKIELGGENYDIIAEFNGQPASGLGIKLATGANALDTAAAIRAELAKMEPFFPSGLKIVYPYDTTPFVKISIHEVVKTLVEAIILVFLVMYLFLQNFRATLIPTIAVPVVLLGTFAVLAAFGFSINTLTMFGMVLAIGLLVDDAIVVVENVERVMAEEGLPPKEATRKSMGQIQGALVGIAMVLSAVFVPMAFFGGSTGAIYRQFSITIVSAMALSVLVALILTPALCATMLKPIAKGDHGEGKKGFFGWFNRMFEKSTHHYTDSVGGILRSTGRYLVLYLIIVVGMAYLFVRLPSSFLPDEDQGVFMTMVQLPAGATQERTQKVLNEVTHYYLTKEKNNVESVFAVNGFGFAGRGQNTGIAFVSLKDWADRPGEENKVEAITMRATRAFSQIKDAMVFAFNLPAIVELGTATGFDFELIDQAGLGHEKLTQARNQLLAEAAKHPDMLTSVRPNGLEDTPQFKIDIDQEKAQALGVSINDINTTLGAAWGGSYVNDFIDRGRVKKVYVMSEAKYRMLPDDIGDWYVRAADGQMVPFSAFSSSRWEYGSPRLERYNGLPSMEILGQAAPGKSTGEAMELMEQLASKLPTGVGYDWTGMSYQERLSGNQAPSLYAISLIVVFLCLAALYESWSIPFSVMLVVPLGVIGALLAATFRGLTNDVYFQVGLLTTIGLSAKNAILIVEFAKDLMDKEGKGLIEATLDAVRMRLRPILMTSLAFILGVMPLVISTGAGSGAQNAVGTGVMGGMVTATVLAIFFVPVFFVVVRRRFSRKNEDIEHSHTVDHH
T2 sequence (O06967 whole entry): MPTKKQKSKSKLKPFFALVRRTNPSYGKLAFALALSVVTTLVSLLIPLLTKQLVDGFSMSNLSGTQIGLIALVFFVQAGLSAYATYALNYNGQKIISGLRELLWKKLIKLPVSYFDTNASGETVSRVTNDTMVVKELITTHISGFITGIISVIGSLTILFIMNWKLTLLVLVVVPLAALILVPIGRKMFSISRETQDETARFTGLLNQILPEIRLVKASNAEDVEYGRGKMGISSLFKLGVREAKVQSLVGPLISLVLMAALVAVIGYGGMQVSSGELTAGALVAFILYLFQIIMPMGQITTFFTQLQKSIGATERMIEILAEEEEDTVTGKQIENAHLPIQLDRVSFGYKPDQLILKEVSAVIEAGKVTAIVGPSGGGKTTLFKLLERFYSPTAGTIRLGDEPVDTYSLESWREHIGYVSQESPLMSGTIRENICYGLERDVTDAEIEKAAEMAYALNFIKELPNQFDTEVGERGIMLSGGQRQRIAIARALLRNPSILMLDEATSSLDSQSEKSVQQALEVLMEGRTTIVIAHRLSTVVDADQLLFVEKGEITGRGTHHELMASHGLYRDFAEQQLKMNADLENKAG

CCCCCCCCCCCCCC(=O)NC(CC(=O)O)C(=O)NC(CCC(=O)O)C(=O)O (stereo not drawn) [Compound 4.5c] (Myristoyl-Asp-Glu-OH; configuration not given here)
CMC [1]: 1.5 mM | extraction of AcrB (AcrB): extracting | extraction of BmrA (BmrA [2]): partially extracting

CCCCCCCCCCCCCCCC(=O)NC(CC(=O)O)C(=O)NC(CCC(=O)O)C(=O)O (stereo not drawn) [Compound 4.5d] (Palmitoyl-Asp-Glu-OH; configuration not given here)
CMC [1]: 1 mM | extraction of AcrB (AcrB): extracting | extraction of BmrA (BmrA [2]): extracting

CCCCCCCCCC(=O)NC(CC(=O)NC(CCC(=O)O)C(=O)O)C(=O)NC(CCC(=O)O)C(=O)O (stereo not drawn) [Compound 4.6a] (Decanoyl-Asp(Glu)-Glu-OH; configuration not given here)
CMC [1]: 1 mM | extraction of AcrB (AcrB): do not extract | extraction of BmrA (BmrA [2]): non-extracting

CCCCCCCCCCCCCCCC(=O)NC(CC(=O)NC(CCC(=O)O)C(=O)O)C(=O)NC(CCC(=O)O)C(=O)O (stereo not drawn) [Compound 4.6d] (Palmitoyl-Asp(Glu)-Glu-OH; configuration not given here)
CMC [1]: 1 mM | selective extraction AcrB versus BmrA (AcrB; comparison of extraction of AcrB and BmrA): not extract, or only very slightly extract, AcrB, unlike BmrA | extraction of AcrB (AcrB): extracting; also recorded: partially extract | extraction of BmrA (BmrA [2]): extracting

CCCCCCCCCCC(CCCCCCCCCC)(CO[C@@H]1O[C@H](CO)[C@@H](O[C@H]2O[C@H](CO)[C@@H](O)[C@H](O)[C@H]2O)[C@H](O)[C@H]1O)CO[C@@H]1O[C@H](CO)[C@@H](O[C@H]2O[C@H](CO)[C@@H](O)[C@H](O)[C@H]2O)[C@H](O)[C@H]1O [LMNG, lauryl maltose neopentyl glycol, reference compound]
ATPase activity of BmrA (BmrA [3]; relative to protein without compound, at concentrations that solubilize/extract BmrA (LMNG 10 mM; DDM beyond 5 mM), 2 h at 4° C.): 25% | impact on the activity of BmrA (BmrA [3]; up to 1 mM): relatively low impact
